This is an account of results in patent US20230174523A1, “BENZENESULFONAMIDE DERIVATIVES AS TRAP1 MODULATORS AND USES THEREOF” (Amathus Therapeutics, Inc., priority 2020, published 2023).

The target in assay [1] is T1, TRAP1 enzyme (Homo sapiens, UniProt Q12931).
T1 sequence (Q12931 60-704): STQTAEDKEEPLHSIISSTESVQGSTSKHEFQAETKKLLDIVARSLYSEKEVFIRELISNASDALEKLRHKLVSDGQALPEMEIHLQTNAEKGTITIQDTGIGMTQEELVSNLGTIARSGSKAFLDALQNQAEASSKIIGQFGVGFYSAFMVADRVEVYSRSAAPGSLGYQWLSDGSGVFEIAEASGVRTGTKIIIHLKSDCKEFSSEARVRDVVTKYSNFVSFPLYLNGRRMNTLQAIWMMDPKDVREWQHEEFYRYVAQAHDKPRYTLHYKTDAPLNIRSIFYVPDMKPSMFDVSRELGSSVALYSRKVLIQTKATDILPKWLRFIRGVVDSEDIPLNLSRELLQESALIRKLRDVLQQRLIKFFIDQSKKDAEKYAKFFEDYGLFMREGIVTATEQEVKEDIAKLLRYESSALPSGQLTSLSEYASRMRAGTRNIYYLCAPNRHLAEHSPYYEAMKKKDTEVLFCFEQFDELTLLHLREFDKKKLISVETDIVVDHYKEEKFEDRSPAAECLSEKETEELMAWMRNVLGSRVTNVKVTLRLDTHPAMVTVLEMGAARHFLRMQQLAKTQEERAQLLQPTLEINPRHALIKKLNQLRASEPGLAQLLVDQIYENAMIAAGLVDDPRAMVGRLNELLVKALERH
Put plainly: ADP Glo assay of TRAP1 ATPase activity. It counts as biochemical. An outline of the steps:
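150 nM TRAP1 preincubated with compound (0.79–100 μM) 30 min at 37° C in Pipes pH 7.5 buffer (0.05 mM MgCl2, 40 mM KCl), then 20 μM ATP added for 60 min at 37° C. ADP quantified by ADP-Glo luminescence against ATP/ADP standard curve. Emax and EC50 from sigmoidal fit.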
A general note: ADP-Glo first removes unused ATP, then detects ADP through luciferase.

For assay [2], the system named is primary rat dopaminergic neurons. Put plainly: ROS production in primary dopaminergic TH-positive neurons injured with 6-OHDA. The following applies: injury with 6-OHDA (20 μM, 4 h); FIG. 5. It counts as cell-based. The method, then: Rat dopaminergic neurons were cultured as described by Visanji et al., 2008. Briefly, pregnant female rat of 15 days of gestation are sacrificed using a deep anesthesia with CO2 chamber and a cervical dislocation. The midbrains obtained from 15-day-old rat embryos are dissected under a microscope. The embryonic midbrains are removed and placed in ice-cold medium of Leibovitz (L15) containing 2% of Penicillin-Streptomycin (PS) and 1% of bovine serum albumin (BSA). The ventral portion of the mesencephalic flexure, a region of the developing brain rich in dopaminergic neurons, is used for the cell preparations.
The midbrains are dissociated by trypsinisation for 20 min at 37° C. (solution at a final concentration of 0.05% trypsin and 0.02% EDTA). The reaction is stopped by the addition of Dulbecco's modified Eagle's medium (DMEM) containing DNAase I grade II (0.5 mg/mL) and 10% of foetal calf serum (FCS). Cells are then mechanically dissociated by 3 passages through a 10 mL pipette. Cells are then centrifuged at 180×g for 10 min at +4° C. on a layer of BSA (3.5%) in L15 medium. […] Viable cells are counted in a Neubauer cytometer using the trypan blue exclusion test. […] Six wells per condition are assessed. […]

pEC50: −log10 of the molar value.

What is called pEC50 is the negative decadic logarithm of the EC50, by convention in mol/L. One may read the Emax as the greatest response seen or fitted, relative to the assay's reference.

`Cc1nn(C)c2sc(C(=O)Nc3ccc(F)c(S(=O)(=O)Nc4ccc(Cl)cc4)c3)cc12` [Compound 705]: in assay [1] (TRAP1 ATPase activation, 150 nM Trap1, 20 μM ATP, geometric mean, read-out: ADP GLO DRC: GeoMean EC50), the negative logarithm of the EC50 (pEC50) was 4.70 to 5.00. Also, the Emax in assay [1] (read-out: ADP GLO DRC: Mean Emax) was 160 to 199%. Further, the “reactive oxygen species (ROS) production” value in assay [2] was “reduction in ROS”.
